Measured values reported in patent US20080039438A1, “1B-Methylcarbapenem Derivative and Process for the Preparation Thereof” (Korea Institute of Science and Technology, priority 2004, published 2008).
In brackets after ≈: the same amount, converted by molar mass.

Key:
Type in all cases: cell-based
Escherichia coli TEM = test: MIC against standard strains (agar dilution); settings: standard strain Escherichia coli TEM, 37° C., 18 to 20 hours, read-out: Minimum Inhibitory Concentration (MIC)
[1] = test system: Streptococcus pyogenes 308A; test: MIC against standard strains (agar dilution); settings: standard strain Streptococcus pyogenes 308A, 37° C., 18 to 20 hours, read-out: Minimum Inhibitory Concentration (MIC)
[2] = test system: Klebsiella aerogenes 1522E; test: MIC against standard strains (agar dilution); settings: standard strain Klebsiella aerogenes 1522E, 37° C., 18 to 20 hours, read-out: Minimum Inhibitory Concentration (MIC)
[3] = test system: Pseudomonas aeruginosa 1771M; test: MIC against standard strains (agar dilution); settings: read-out: Minimum Inhibitory Concentration (MIC)
Acinetobacter baumannii = test: MIC against clinically isolated aerobic Gram-negative strains; settings: 30 strains
Haemophilus influenzae = test: as above; settings: 24 strains
[4] = test system: Pseudomonas aeruginosa 1771; test: MIC against standard strains (agar dilution); settings: standard strain Pseudomonas aeruginosa 1771, 37° C., 18 to 20 hours, read-out: Minimum Inhibitory Concentration (MIC)
Klebsiella pneumoniae = test: MIC against clinically isolated aerobic Gram-negative strains; settings: 30 strains
Enterococcus faecalis = test: MIC against clinically isolated aerobic Gram-positive strains; settings: 30 strains
Bacteroides spp. = test: MIC against clinically isolated anaerobic Gram-negative strains; settings: 11 strains
Streptococcus pneumoniae = test: MIC against clinically isolated aerobic Gram-positive strains; settings: 22 strains
Clostridium perfringens = test: microbe, parasite or virus in culture
Providentia sp. = test: MIC against clinically isolated aerobic Gram-negative strains; settings: 13 strains
[5] = test system: Staphylococcus aureus SG511; test: MIC against standard strains (agar dilution); settings: standard strain Staphylococcus aureus SG511, 37° C., 18 to 20 hours, read-out: Minimum Inhibitory Concentration (MIC)
Enterobacter cloacae = test: MIC against clinically isolated aerobic Gram-negative strains; settings: 29 strains
Klebsiella cxytoca 1082E = test: MIC against standard strains (agar dilution); settings: standard strain Klebsiella cxytoca 1082E, 37° C., 18 to 20 hours, read-out: Minimum Inhibitory Concentration (MIC)
Citrobacter freundii = test: MIC against clinically isolated aerobic Gram-negative strains; settings: 14 strains
[6] = test system: Streptococcus faecium MD 8b; test: MIC against standard strains (agar dilution); settings: Enterococcus faecium, MD8B, standard strain Streptococcus faecium MD 8b, 37° C., 18 to 20 hours, read-out: Minimum Inhibitory Concentration (MIC)
[7] = test system: Enterobacter cloacae 1321E; test: MIC against standard strains (agar dilution); settings: standard strain Enterobacter cloacae 1321E, 37° C., 18 to 20 hours, read-out: Minimum Inhibitory Concentration (MIC)
[8] = test system: Pseudomonas aeruginosa 1592E; test: MIC against standard strains (agar dilution); settings: standard strain Pseudomonas aeruginosa 1592E, 37° C., 18 to 20 hours, read-out: Minimum Inhibitory Concentration (MIC)
[9] = test system: Streptococcus pyogenes 77A; test: MIC against standard strains (agar dilution); settings: standard strain Streptococcus pyogenes 77A, 37° C., 18 to 20 hours, read-out: Minimum Inhibitory Concentration (MIC)
Escherichia coli DC 0 = test: MIC against standard strains (agar dilution); settings: DC0, standard strain Escherichia coli DC 0, 37° C., 18 to 20 hours, read-out: Minimum Inhibitory Concentration (MIC)
Escherichia coli DC 2 = test: MIC against standard strains (agar dilution); settings: Escherichia coli, DC2, read-out: Minimum Inhibitory Concentration (MIC)
Bacteroides fragilis = test: MIC against clinically isolated anaerobic Gram-negative strains; settings: 34 strains
[10] = test system: Pseudomonas aeruginosa 9027; test: MIC against standard strains (agar dilution); settings: standard strain Pseudomonas aeruginosa 9027, 37° C., 18 to 20 hours, read-out: Minimum Inhibitory Concentration (MIC)
Escherichia coli = test: MIC against clinically isolated aerobic Gram-negative strains; settings: 30 strains
Morganella morganii = test: as above; settings: 15 strains
Streptococcus pyogenes = test: MIC against clinically isolated aerobic Gram-positive strains; settings: 15 strains
[11] = test system: Bacteroides thetaiotaomicron; test: MIC against clinically isolated anaerobic Gram-negative strains
Enterobacter cloacae P99 = test: MIC against standard strains (agar dilution); settings: standard strain Enterobacter cloacae P99, 37° C., 18 to 20 hours, read-out: Minimum Inhibitory Concentration (MIC)

## C[C@@H](O)[C@H]1C(=O)N2C(C(=O)O)=C(S[C@@H]3CN[C@H](C(=O)N(C)C)C3)[C@H](C)[C@H]12 [MPM, meropenem]
Escherichia coli TEM
  MIC: 0.025 µg/mL (≈ 0.0652 µM)
[1]
  MIC: 7 ng/mL (≈ 0.0183 µM)
[2]
  MIC: 0.049 µg/mL (≈ 0.128 µM)
[3]
  MIC: 0.098 µg/mL (≈ 0.256 µM)
Acinetobacter baumannii
  MIC50: 1 µg/mL (≈ 2.61 µM)
  MIC90: 8 µg/mL (≈ 20.9 µM)
  MIC Range: 0.25 to 64 µg/mL
Haemophilus influenzae
  MIC50: 0.25 µg/mL (≈ 0.652 µM)
  MIC90: 1 µg/mL (≈ 2.61 µM)
  MIC Range: 0.06 to 1 µg/mL
[4]
  MIC: 0.391 µg/mL (≈ 1.02 µM)
Klebsiella pneumoniae
  MIC50: 0.03 µg/mL (≈ 0.0782 µM)
  MIC90: 0.06 µg/mL (≈ 0.156 µM)
  MIC Range: 0.015 to 0.06 µg/mL
Enterococcus faecalis
  MIC50: 4 µg/mL (≈ 10.4 µM)
  MIC90: 16 µg/mL (≈ 41.7 µM)
  MIC Range: 2 to 16 µg/mL
Bacteroides spp.
  MIC50: 0.5 µg/mL (≈ 1.3 µM)
  MIC90: 0.5 µg/mL (≈ 1.3 µM)
  MIC Range: 0.12 to 0.5 µg/mL
Streptococcus pneumoniae
  MIC50: 0.5 µg/mL (≈ 1.3 µM)
  MIC90: 0.5 µg/mL (≈ 1.3 µM)
  MIC Range: 8 to 500 ng/mL
Clostridium perfringens; Clostridium perfringens
  MIC50: < 0.06 µg/mL
  MIC90: < 0.06 µg/mL
Clostridium perfringens; clinically isolated anaerobic Clostridium perfringens, 13 strains
  MIC Range: <0.06 µg/mL
Providentia sp.
  MIC50: 0.06 µg/mL (≈ 0.156 µM)
  MIC90: 2 µg/mL (≈ 5.22 µM)
  MIC Range: 0.015 to 2 µg/mL
[5]
  MIC: 0.098 µg/mL (≈ 0.256 µM)
Enterobacter cloacae
  MIC50: 0.03 µg/mL (≈ 0.0782 µM)
  MIC90: 0.25 µg/mL (≈ 0.652 µM)
  MIC Range: 0.015 to 0.5 µg/mL
Klebsiella cxytoca 1082E
  MIC: 0.049 µg/mL (≈ 0.128 µM)
Citrobacter freundii
  MIC50: 0.015 µg/mL (≈ 0.0391 µM)
  MIC90: 0.03 µg/mL (≈ 0.0782 µM)
  MIC Range: 0.015 to 0.06 µg/mL
[6]
  MIC: 12.5 µg/mL (≈ 32.6 µM)
[7]
  MIC: 0.025 µg/mL (≈ 0.0652 µM)
[8]
  MIC: 0.098 µg/mL (≈ 0.256 µM)
[9]
  MIC: 7 ng/mL (≈ 0.0183 µM)
Escherichia coli DC 0
  MIC: 0.025 µg/mL (≈ 0.0652 µM)
Escherichia coli DC 2
  MIC: 0.025 µg/mL (≈ 0.0652 µM)
Bacteroides fragilis
  MIC50: 0.12 µg/mL (≈ 0.313 µM)
  MIC90: 0.25 µg/mL (≈ 0.652 µM)
  MIC Range: 0.12 to 4 µg/mL
[10]
  MIC: 0.195 µg/mL (≈ 0.509 µM)
Escherichia coli
  MIC50: 0.015 µg/mL (≈ 0.0391 µM)
  MIC90: 0.03 µg/mL (≈ 0.0782 µM)
  MIC Range: 8 to 500 ng/mL
Morganella morganii
  MIC50: 0.06 µg/mL (≈ 0.156 µM)
  MIC90: 0.12 µg/mL (≈ 0.313 µM)
  MIC Range: 0.03 to 0.12 µg/mL
Streptococcus pyogenes
  MIC50: < 8 ng/mL
  MIC90: < 8 ng/mL
  MIC Range: <8 ng/mL
[11]; Bacteroides thetaiotaomicron
  MIC50: 0.25 µg/mL (≈ 0.652 µM)
  MIC90: 0.5 µg/mL (≈ 1.3 µM)
[11]; clinically isolated anaerobic Bacteroides thetaiotaomicron, 15 strains
  MIC Range: 0.25 to 2 µg/mL
Enterobacter cloacae P99
  MIC: 0.049 µg/mL (≈ 0.128 µM)
